Values after ≈ are worked out from the molar mass of the structure shown. Read-outs that look alike come from different tables or passages of the source.
Legend:
[1] = Oral Range Finding Toxicity and Toxicokinetic Study in Male Cynomolgus Monkeys; type: in vivo, Cynomolgus monkeys (Macaca Fascicularis)
Description: An Oral Range Finding Toxicity and Toxicokinetic Study in Male Cynomolgus Monkeys
The first day of dosing was designated as Day 1 of the study. The actual volume administered to each animal was calculated and adjusted based on the most recent body weight of each animal.
Cage-side clinical signs (ill health, behavioral changes etc.) were recorded at least once daily during the study.
Body weights were recorded for all animals prior to group assignment and on Days 1 (prior to dosing), 3 and 7 as well as terminally prior to necropsy (fasted).
Electrocardiograms (bipolar limb leads I, II and III, and augmented unipolar leads aVR, aVL and aVF) were obtained for all monkeys once during the pre-treatment period and again on Day 7 (post-dosing).
The tracings were assessed for gross changes indicative of cardiac electrical dysfunction. The potential presence of abnormalities involving heart rate (lead II), sinus and atrioventricular rhythm or conductivity were determined. Heart rate, PR interval, QRS duration, QT and QTc intervals values were measured.
A series of 7 blood samples (approximately 0.5 mL each) were collected from each monkey on Days 1 and 7 at the following time points: predose, 30 minutes and 2, 3, 6, 12 and 24 hours post-dose. For this purpose, each monkey was bled by venipuncture and the samples were collected into tubes containing the anticoagulant, K2EDTA. Tubes were placed on wet ice until ready for processing.
Laboratory investigations (hematology, coagulation, clinical chemistry and urinalysis) were performed on all animals prior to start of treatment and prior to termination on Day 8.
A necropsy with tissue collection was conducted on all animals terminated during the study. The necropsy included examination of: • carcass and muscular/skeletal system; • all external surfaces and orifices; • cranial cavity and external surface of the brain; • neck with associated organs and tissues; and • thoracic, abdominal, and pelvic cavities with their associated organs and tissues. All abnormalities were described and recorded.
For all animals, all tissues indicated above were embedded in paraffin, sectioned and stained with hematoxylin and eosin and examined by light microscopy.

[2] = Aqueous Solubility Study; type: physicochemical; conditions: water, aqueous buffer, thermodynamic from solid, crystalline solid form, pH >3.0, 96 hours at room temperature
Description: The aqueous solubilities of compound 23 and compound W were determined according to the following procedure.
Aqueous samples of each compound were prepared as follows. Compounds were weighed (20-30 mg compound) in 4 ml clear vials prior to adding water (0.5 mL) and stirring by magnetic stirrer. 1.0N HCl was added to the suspension to adjust the pH to the desired range. After stirring for 96 hours at room temperature, the suspension was filtered through a 0.22 micron filter (Millipore, Ultrafree centrifugal filters, Durapore PVDF 0.22 μm, Cat# UFC30GVNB). The filtrate was collected and the pH measured with a pH meter.
Standard solutions of each compound were prepared according to the following procedure. […]
Aliquots of each sample and each standard solution were analyzed by HPLC analysis (Agilent 1100, injection volume 10 μL, wavelength 271 nm, column XTerra® Phenyl 5 μm, 4.6×50 mm, Part No. 186001144, mobile phase: A: 0.1% TFA in water 0.1% TFA in AcN). […] Standard curves were obtained by plotting the average of the peak area from the HPLC versus the concentrations of the standard solutions (with appropriate corrections of the weights of the standards based on total water content of the solid as determined by elemental analysis). The concentration of each sample was calculated from the peak area of the aqueous sample from the HPLC results and the slope and intercept of the standard curves. […]

[3] = Rat IV Study (pharmacokinetics); conditions: male Sprague Dawley rats, plasma analyte = label
[4] = system: M. tuberculosis; assay: microbe, parasite or virus in culture; type: cell-based
[5] = system: intracellular M. tuberculosis in J774 cells; assay: Efficacy against intracellular M. tuberculosis (luciferase) in J774 cells; type: cell-based
[6] = system: intracellular M. tuberculosis in THP-1 cells; assay: microbe, parasite or virus in culture; type: cell-based; conditions: Mycobacterium tuberculosis, H37RA; for IC50: THP-1, 120 h, read-out: Mtb H37Ra in THP1 Cells (IC50); for MIC: read-out: MIC, Macrophage Cells
[7] = system: nonreplicating M. tuberculosis; assay: Low-Oxygen-Recovery Assay (LORA) MIC; type: cell-based; conditions: Mycobacterium tuberculosis, read-out: LORA MIC
From the text: MIC Determination in the Low-Oxygen-Recovery Assay (LORA) for Nonreplicating M. tuberculosis
Screening for new antimicrobial agents is routinely conducted only against actively replicating bacteria. However, it is now widely accepted that a physiological state of non-replicating persistence (NRP) is responsible for antimicrobial tolerance in many bacterial infections. In tuberculosis, the key to shortening the 6-month regimen lies in targeting this NRP subpopulation. […] Cho S H, Want S, Wan B, Hwang C H, Pauli G F, Franzblau S G; “Low-Oxygen-Recovery Assay for High-Throughput Screening of Compounds against Nonreplicating Mycobacterium tuberculosis” Antimicrob Agents Chemother. 2007 April; 51(4): 1380-1385 doi: 10.1128/AAC.00055-06.

[8] = system: M. tuberculosis Erdman; assay: MBC assay, log killing reduction in CFU over a one month period of incubation (Table 35); type: cell-based; conditions: Compound 23A at 4×MIC
[9] = system: Non-Replicating (NRP) M. tuberculosis H37Ra; assay: Non-replicating (NRP) M. tuberculosis H37Ra (luciferase) culture assay; type: cell-based; conditions: Mycobacterium tuberculosis, 336 h, read on day 14
[10] = system: M. kansasii; assay: MIC in bacterial broth culture (7H9 with ADC, visual or resazurin); type: cell-based; conditions: Mycobacterium kansasii, Table 31, duplicate values
[11] = system: M. tuberculosis H37Rv; conditions: cited from earlier work
[12] = system: M. tuberculosis H37Rv; assay: Monotherapy against established TB in mice (dose-ranging activity study); type: in vivo; conditions: BALB/c mice, M. tuberculosis H37Rv, 150 mg/kg daily 5 days per week
[13] = doses up to 200 mg/kg/day for 7 days
[14] = Compound W dosed IV bolus 1 mg/kg in D5W
[15] = Compound W dosed IV bolus 5 mg/kg in D5W
[16] = Mycobacterium tuberculosis, H37RA, read-out: MIC, Broth

CCNC(=O)Nc1nc2cc(-c3cnc(C(C)(C)O)nc3)c(F)c([C@H]3CCCO3)c2[nH]1 [Compound 23, 1-ethyl-3-[6-fluoro-5-[2-(1-hydroxy-1-methyl-ethyl)pyrimidin-5-yl]-7-[(2R)-tetrahydrofuran-2-yl]-1H-benzimidazol-2-yl]urea]
clinical signs, body weights, electrocardiography, clinical pathology, organ weights [1, 13]: no clinical signs, or changes in body weights, electrocardiography parameters, clinical pathology parameters, or organ weights
macroscopic or microscopic findings [1, 13]: no macroscopic or microscopic findings
no observed effect level (NOEL) ([1]; oral gavage once per day for 7 days): 200 mg/kg/day
exposures for different dosage levels ([1]; toxicokinetics): dose related
solubility at 96 h [2]: < 1 µg/mL
AUCextrap [3, 14]: 310 ng·h/mL
Cl_obs [3, 14]: 54.9 mL/min/kg
Vss_obs [3, 14]: 3.8 L/kg
AUCextrap [3, 15]: 3060 ng·h/mL
Cl_obs [3, 15]: 27.3 mL/min/kg
Vss_obs [3, 15]: 4.08 L/kg

COc1c(N2CCNC(C)C2)c(F)cc2c(=O)c(C(=O)O)cn(C3CC3)c12 (centres unmarked) [Gatifloxacin, 1-cyclopropyl-6-fluoro-8-methoxy-7-(3-methylpiperazin-1-yl)-4-oxo-quinoline-3-carboxylic acid]
Erdman (MIC) [4]: 0.25 µg/mL
IC50 ([5]; Mycobacterium tuberculosis, J774, 120 h, read-out: Mtb CDC1551 in J774 Cells (IC50)): 0.94 µg/mL (≈ 2.5 µM)
IC50 [6]: 0.2 µg/mL (≈ 0.533 µM)
MIC [7]: 3.6 µg/mL (≈ 9.59 µM)

COc1c(N2C[C@@H]3CCCN[C@@H]3C2)c(F)cc2c(=O)c(C(=O)O)cn(C3CC3)c12 [Moxifloxacin, 1-cyclopropyl-7-[(1S,6S)-2,8-diazabicyclo [4.3.0]non-8-yl]-6-fluoro-8-methoxy-4-oxo-quinoline-3-carboxylic acid]
MIC ([4]; Mycobacterium tuberculosis, ERDMAN, Table 31, Mtb Erdman, duplicate values, read-out: MIC): 0.03 µg/mL (≈ 0.0747 µM)
MIC ([4]; Mycobacterium tuberculosis, ERDMAN, Table 32, M. tuberculosis Erdman, […], duplicate values, read-out: MIC): 0.03 µg/mL (≈ 0.0747 µM)
MIC ([4]; Mycobacterium tuberculosis, ERDMAN, Table 33, M. tuberculosis strain Erdman, read-out: MIC): 0.03 µg/mL (≈ 0.0747 µM)
MIC ([4]; Mycobacterium tuberculosis, GN9, Table 31, Mtb GN9, duplicate values, read-out: MIC): 0.03 µg/mL (≈ 0.0747 µM)
MIC ([4]; Mycobacterium tuberculosis, GN9, Table 33, M. tuberculosis strain GN9, read-out: MIC): 0.03 µg/mL (≈ 0.0747 µM)
MIC [4, 16]: 0.12 µg/mL (≈ 0.299 µM)
MIC ([4]; Mycobacterium tuberculosis, H37RV, Table 31, Mtb H37Rv, duplicate values, read-out: MIC): 0.03 µg/mL (≈ 0.0747 µM)
MIC ([4]; Mycobacterium tuberculosis, H37RV, Table 33, M. tuberculosis strain H37Rv, read-out: MIC): 0.06 µg/mL (≈ 0.149 µM)
MIC ([4]; Mycobacterium tuberculosis, Table 31, Mtb CDC1551, duplicate values, read-out: MIC): 0.015 µg/mL (≈ 0.0374 µM)
MIC ([4]; Mycobacterium tuberculosis, Table 31, Mtb HN878 (Beijing-Type), duplicate values, read-out: MIC): 0.03 µg/mL (≈ 0.0747 µM)
MIC ([4]; Mycobacterium tuberculosis, Table 32, […], duplicate values, read-out: MIC): 8 µg/mL (≈ 19.9 µM)
MIC ([4]; Mycobacterium tuberculosis, Table 33, M. tuberculosis strain 210, read-out: MIC): 0.015 µg/mL (≈ 0.0374 µM)
MIC ([4]; Mycobacterium tuberculosis, Table 33, M. tuberculosis strain AH13, read-out: MIC): 0.5 µg/mL (≈ 1.25 µM)
MIC ([4]; Mycobacterium tuberculosis, Table 33, M. tuberculosis strain AH517, read-out: MIC): 0.03 µg/mL (≈ 0.0747 µM)
MIC ([4]; Mycobacterium tuberculosis, Table 33, M. tuberculosis strain BW9, read-out: MIC): 0.008 µg/mL (≈ 0.0199 µM)
MIC ([4]; Mycobacterium tuberculosis, Table 33, M. tuberculosis strain C913, read-out: MIC): 0.03 µg/mL (≈ 0.0747 µM)
MIC ([4]; Mycobacterium tuberculosis, Table 33, M. tuberculosis strain CDC1551, read-out: MIC): 0.03 µg/mL (≈ 0.0747 µM)
MIC ([4]; Mycobacterium tuberculosis, Table 33, M. tuberculosis strain H10460, read-out: MIC): 0.25 µg/mL (≈ 0.623 µM)
MIC ([4]; Mycobacterium tuberculosis, Table 33, M. tuberculosis strain H13571, read-out: MIC): 0.03 µg/mL (≈ 0.0747 µM)
MIC ([4]; Mycobacterium tuberculosis, Table 33, M. tuberculosis strain HH915336, read-out: MIC): 0.015 µg/mL (≈ 0.0374 µM)
MIC ([4]; Mycobacterium tuberculosis, Table 33, M. tuberculosis strain LL, read-out: MIC): 0.015 µg/mL (≈ 0.0374 µM)
MIC ([4]; Mycobacterium tuberculosis, Table 33, M. tuberculosis strain MC19062, read-out: MIC): 0.015 µg/mL (≈ 0.0374 µM)
MIC ([4]; Mycobacterium tuberculosis, Table 33, M. tuberculosis strain Rv ATCC, read-out: MIC): 0.06 µg/mL (≈ 0.149 µM)
MIC ([4]; Mycobacterium tuberculosis, Table 33, M. tuberculosis strain W10, read-out: MIC): 0.03 µg/mL (≈ 0.0747 µM)
MIC ([4]; Mycobacterium tuberculosis, Table 33, M. tuberculosis strain W33, read-out: MIC): 0.5 µg/mL (≈ 1.25 µM)
MIC ([4]; Mycobacterium tuberculosis, Table 33, M. tuberculosis strain Wg565, read-out: MIC): 1 µg/mL (≈ 2.49 µM)
MIC ([4]; Table 31, Mtb GN9, duplicate values): 0.015 µg/mL (≈ 0.0374 µM)
MIC ([4]; Table 31, Mtb HN878 (Beijing-Type), duplicate values): 0.015 µg/mL (≈ 0.0374 µM)
MIC ([4]; Table 32, M. tuberculosis Erdman, […], duplicate values): 0.015 µg/mL (≈ 0.0374 µM)
MIC ([4]; Table 32, […], duplicate values): 4 µg/mL (≈ 9.96 µM)
Erdman (MIC) ([4]; Table 36, Mtb Erdman, unit inferred): 0.03 µg/mL
Log Reduction (cfu) ([8]; day 0 of incubation): 0 Log
Log Reduction (cfu) ([8]; day 1 of incubation): 0.4 Log
Log Reduction (cfu) ([8]; day 2 of incubation): 1.6 Log
Log Reduction (cfu) ([8]; day 3 of incubation): 2.8 Log
Log Reduction (cfu) ([8]; day 7 of incubation): 2.2 Log
Log Reduction (cfu) ([8]; day 14 of incubation): 1.4 Log
Log Reduction (cfu) ([8]; day 21 of incubation): 0.0 Log
Log Reduction (cfu) ([8]; day 28 of incubation): 0.2 Log
IC50 [9]: 6 µg/mL (≈ 14.9 µM)
MIC ([10]; M. kansasii 303): 0.03 µg/mL (≈ 0.0747 µM)
MIC ([10]; M. kansasii 316): 0.03 µg/mL (≈ 0.0747 µM)
MIC ([10]; M. kansasii 379): 0.03 µg/mL (≈ 0.0747 µM)
IC50 ([5]; Mycobacterium tuberculosis, J774, 120 h; read-out: Mtb CDC1551 in J774 Cells (IC50)): 0.21 µg/mL (≈ 0.523 µM)
IC50 [6]: 0.33 µg/mL (≈ 0.822 µM)
MIC [6]: 0.33 µg/mL (≈ 0.822 µM)
MIC [7]: > 40 µg/mL

NC(=O)c1cnccn1 [Pyrazinamide, pyrazine-2-carboxamide]
MIC [4, 16]: > 12.3 µg/mL
MIC ([11]; M. tuberculosis H37Rv, normal pH): 250 µg/mL (≈ 2030 µM)
MIC ([11]; pH 6.0): 50 µg/mL (≈ 406 µM)
Log cfu (lung) ([12]; 4 weeks of treatment): 4.22
Log Reduction ([12]; 4 weeks, vs untreated control): 1.78
MIC [6]: > 2.5 µg/mL

Reference: patent US9937192B2, “Combination therapy to treat mycobacterium diseases” (priority 2012, dated 2018)
